Read-outs that look alike come from different tables or passages of the source.
Assays:
[1] = biological target: T1, HCV NS5B polymerase (His-tagged, C-terminal 21 amino acid deleted NS5B, HC-J4) (Hepatitis C virus genotype 1b, UniProt O92972); experiment: NS5b polymerase assay (biochemical RdRp assay, 3H-GTP incorporation, SPA beads); set-up: species or system HCV genotype 1b
T1 construct: The cDNA encoding NS5B amino acid 1-570 (HC-J4, genotype 1b); His tag (His6, from pET-21b) (C); made in house; host or cells: E. coli BL21 (DE3)
Method: (§1) The compounds of formula (I) were tested for anti-HCV activity in an assay determining their activity against NS5b polymerase and in an HCV replicon assay
The cDNA encoding NS5B amino acid 1-570 (HC-J4, genotype 1b, pCV-J4L6S, genebank accession number AF054247) was subcloned into the Nhe I and Xho I restriction sites of pET-21b. Expression of the subsequent His-tagged C-terminal 21 amino acid deleted NS5B was performed as follows:
Following transformation in BL21 (DE3) competent cells, bacterial cells were grown in 22 liter LB/Amp media until to reach OD600=0.4-0.6. Protein expression was induced by addition of IPTG 0.4 mM, supplemented with 10 μM MgCl2, and incubated for 14-16 hrs at 20° C. Cells were harvested, resuspended in lysis buffer (20 mM Tris-HCl pH=7.5, 0.3 M NaCl, 10% glycerol, 0.1% NP40, 4 mM MgCl2, 14 mM beta-mercaptoethanol, with tablet of EDTA-free protease cocktail inhibitors) and lysed by sonification. The cell lysate was cleared by high-speed centrifugation (20K×g for 30 min), captured on Ni-NTA beads for 70 min at 4° C., and eluted with 25 mM Hepes pH 7.5, 0.5 M NaCl, 10% glycerol, 14 mM BME, 500 mM imidazole. The eluent was dialysed against 25 mM Hepes pH 7.5, 10% glycerol, 50 mM NaCl, 14 mM BME, after which the protein was further purified by heparin chromatography using the same buffer with 1 M NaCl for elution. Fractions containing pure protein were collected, dialyzed against storage buffer 25 mM Hepes pH=7.5, 300 mM NaCl, 10% glycerol, 14 mM BME), and flash-freezed in liquid nitrogen.
Measurement of HCV NS5B polymerization activity was performed by evaluating the amount of radiolabeled GTP incorporated by the enzyme in a newly synthesized RNA using heteropolymeric RNA template/primer. The highthroughput RdRp assay was carried out in 384-well plates using 200 nM enzyme, 0.1 μCi of ^3H GTP, 5 mM MgCl2, 600 nM GTP, 30 nM PolyC, 300 nM 5′-biotinylated oligo(rG13)/poly(rC) in 20 mM Tris pH 7.5, 21 mM KCl, 2.5 mM DTT, 16.7 mM NaCl and 0.17 mM EDTA. Test compounds were dissolved in dimethylsulfoxide. The test compounds were added to the preformed polymerase-template complex, and incubated at room temperature (RT) for 15 min before the addition of NTPs. The 30-μl reaction was terminated after 2 h at 25° C. upon addition of 30-μl PVT-SPA beads (Amersham Biosciences RPNQ0009, 5 mg/ml in 0.5 M EDTA).

[2] = system: HCV replicon RNA replication in Huh-7 luc/neo (Huh-Luc) cells; experiment: HCV replicon assay (stable replicon cell reporter assay, luciferase read-out); assay type: cell-based, HCV type 1b
Method: as §1
The compounds of the present invention were examined for activity in the inhibition of HCV RNA replication in a cellular assay. […] The cellular assay was based on a bicistronic expression construct, as described by Lohmann et al. (1999) Science vol. 285 pp. 110-113 with modifications described by Krieger et al. (2001) Journal of Virology 75: 4614-4624, in a multi-target screening strategy. In essence, the method was as follows.
The assay utilized the stably transfected cell line Huh-7 luc/neo (hereafter referred to as Huh-Luc). This cell line harbored an RNA encoding a bicistronic expression construct comprising the wild type NS3-NS5B regions of HCV type 1b translated from an Internal Ribosome Entry Site (IRES) from encephalomyocarditis virus (EMCV), preceded by a reporter portion (FfL-luciferase), and a selectable marker portion (neo^R, neomycine phosphotransferase). The construct was bordered by 5′ and 3′ NTRs (non-translated regions) from HCV type 1b. Continued culture of the replicon cells in the presence of G418 (neo^R) was dependent on the replication of the HCV RNA. The stably transfected replicon cells that expressed HCV RNA, which replicated autonomously and to high levels, encoding inter alia luciferase, were used for screening the antiviral compounds.
The replicon cells were plated in 384 well plates in the presence of the test and control compounds which were added in various concentrations. Following an incubation of three days, HCV replication was measured by assaying luciferase activity (using standard luciferase assay substrates and reagents and a Perkin Elmer ViewLux™ ultraHTS microplate imager). […] The inhibitory activity of the compound on luciferase activity was monitored on the Huh-Luc cells, enabling a dose-response curve for each test compound.

[3] = NS5B Polymerase Assay IC50, 200 nM enzyme, 3H-GTP incorporation, 2 h at 25° C.
[4] = Hepatitis C virus, Huh-7, 72 h, read-out: Replicon Assay EC50, Huh-Luc cells, three days incubation, luciferase activity
[5] = NS5B Polymerase Assay IC50 (μM)
[6] = Hepatitis C virus, Huh-7, 72 h, read-out: Replicon Assay EC50 (μM), Huh-Luc cells, incubation of three days, luciferase activity
[7] = 200 nM enzyme, 3H-GTP incorporation, 2 h at 25° C., read-out: NS5B Polymerase Assay IC50
[8] = Huh-Luc cells, three days incubation, luciferase activity, read-out: Replicon Assay EC50

T1 sequence (O92972 2417-3000, looked up, stated change not applied): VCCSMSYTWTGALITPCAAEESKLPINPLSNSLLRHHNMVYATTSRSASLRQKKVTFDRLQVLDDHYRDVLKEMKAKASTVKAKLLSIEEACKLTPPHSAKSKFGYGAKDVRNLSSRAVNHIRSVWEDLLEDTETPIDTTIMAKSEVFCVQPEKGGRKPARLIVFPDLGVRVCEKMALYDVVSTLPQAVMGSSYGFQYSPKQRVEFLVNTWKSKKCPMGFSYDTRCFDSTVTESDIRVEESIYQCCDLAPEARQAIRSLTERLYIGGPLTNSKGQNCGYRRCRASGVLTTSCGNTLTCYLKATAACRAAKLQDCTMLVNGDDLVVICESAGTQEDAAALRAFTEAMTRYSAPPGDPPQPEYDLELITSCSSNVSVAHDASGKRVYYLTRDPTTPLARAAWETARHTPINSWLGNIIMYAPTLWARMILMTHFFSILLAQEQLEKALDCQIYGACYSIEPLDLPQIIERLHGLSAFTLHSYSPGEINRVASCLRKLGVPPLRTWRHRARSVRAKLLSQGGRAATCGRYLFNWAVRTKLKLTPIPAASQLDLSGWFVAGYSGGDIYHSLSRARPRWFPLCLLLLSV

In the case of `CC1(C)CC(=O)C2=C(C1)Nc1ccccc1N(C(=O)c1ccccc1)C2c1ccccc1Cl` (centres unmarked) [compound 70], the IC50 [1, 3] is reported as over 42.7 µM and the EC50 [2, 4] is reported as 14.6 µM.
In the case of `COc1ccc(OC)c(C2Nc3ccccc3NC3=C2C(=O)CC(c2ccc(Cl)cc2)C3)c1` (centres unmarked) [compound 356], the IC50 [1, 5] is reported as over 42.7 µM and the EC50 [2, 6] is reported as 16.1 µM.
For `COc1ccc(C2CC(=O)C3=C(C2)Nc2ccccc2NC3c2ccc(OCc3ccccc3)cc2)cc1` (centres unmarked) [compound 388], the IC50 [1, 5] was over 42.7 µM and the EC50 [2, 6] was 6.35 µM.
Molecule `CC1(C)CC(=O)C2=C(C1)Nc1ccccc1N(C(=O)c1ccccc1)C2c1c(F)cccc1Cl` (centres unmarked) [compound 37] has an IC50 [1, 3] of over 42.7 µM and an EC50 [2, 4] of 6.93 µM.
Molecule `Cc1ccc(C2C3=C(CC(c4cccc([N+](=O)[O-])c4)CC3=O)Nc3ccccc3N2C(=O)c2ccccc2)cc1` (mixture of isomers) [compound 212] has an IC50 [1, 7] of over 42.7 µM and an EC50 [2, 8] of 23.9 µM.
For `CC(=O)N1c2ccccc2NC2=C(C(=O)CC(C)(C)C2)C1c1ccc2c(c1)OCO2` (centres unmarked) [compound 284], the IC50 [1, 3] was over 42.7 µM and the EC50 [2, 4] was 30.9 µM.
`CCC(C)Oc1ccccc1C1C2=C(CC(c3ccc(OC)c(OC)c3)CC2=O)Nc2ccccc2N1C(=O)c1ccccc1` (centres unmarked) [compound 183] was tested, and the IC50 [1, 3] was over 42.7 µM and the EC50 [2, 4] was 1.32 µM.
`O=C1C[C@@H](c2ccc(Cl)cc2)CC2=C1[C@H](c1cc3c(cc1Br)OCO3)Nc1ccccc1N2` [compound 479] was tested, and the IC50 [1, 5] was over 42.7 µM.
`CC(C)C(=O)N1c2ccccc2NC2=C(C(=O)CC(C)(C)C2)C1c1ccc([N+](=O)[O-])s1` (centres unmarked) [compound 239] showed an IC50 [1, 3] of over 42.7 µM.
`COc1ccc(C2CC(=O)C3=C(C2)Nc2ccccc2NC3c2ccccc2OC(C)C)cc1` (centres unmarked) [compound 333] showed an IC50 [1, 5] of over 42.7 µM.
Work on `CC(=O)N1c2ccccc2NC2=C(C(=O)CC(C)(C)C2)C1c1ccc(OCc2ccccc2)c(Cl)c1` (single isomer, unassigned) [compound 303, 10-acetyl-11-[4-benzyloxy-3-chlorophenyl]-3,3-dimethyl-2,3,4,5,10,11-hexahydro-1H-dibenzo[b,e][1,4]diazepin-1-one] yielded an IC50 [1, 3] of 31.5 µM.
For `CC1(C)CC(=O)C2=C(C1)Nc1ccccc1N(C(=O)NCc1ccccc1)C2c1ccc(Cl)cc1Cl` (centres unmarked) [compound 159], the EC50 [2, 8] was 9.59 µM.
With `CC1(C)CC(=O)C2=C(C1)Nc1ccccc1N(C(=O)Cc1ccccc1)C2c1ccc(-c2ccc([N+](=O)[O-])cc2)o1` (centres unmarked) [compound 238] the IC50 [1, 3] was over 42.7 µM.
`CCC(=O)N1c2ccccc2NC2=C(C(=O)CC(c3cccc([N+](=O)[O-])c3)C2)C1c1ccc(Cl)cc1` (mixture of isomers) [compound 211] was tested, and the IC50 [1, 7] was over 42.7 µM.
In the case of `COc1ccc(OC)c(C2Nc3ccccc3NC3=C2C(=O)CC(c2ccccc2)C3)c1` (centres unmarked) [compound 351], the IC50 [1, 5] is reported as over 42.7 µM.
Work on `CC1(C)CC(=O)C2=C(C1)Nc1ccccc1N(C(=O)NCc1ccoc1)C2c1ccc(Cl)cc1Cl` (centres unmarked) [compound 158] yielded an EC50 [2, 8] of 31.1 µM.
For `CCCCCC(=O)N1c2ccccc2NC2=C(C(=O)CC(c3ccco3)C2)C1c1cccc([N+](=O)[O-])c1` (centres unmarked) [compound 290], the IC50 [1, 3] was over 42.7 µM.
In the case of `CC1(C)CC(=O)C2=C(C1)Nc1ccccc1N(C(=O)Cc1ccccc1)C2c1ccc(Br)cc1` (centres unmarked) [compound 95], the IC50 [1, 3] is reported as over 33.3 µM.
For `O=C1CC(c2cccc([N+](=O)[O-])c2)CC2=C1C(c1ccc(Cl)cc1)N(C(=O)C(F)(F)F)c1ccccc1N2` (mixture of isomers) [compound 214], the IC50 [1, 7] was over 42.7 µM.
For `COc1ccc(C2CC(=O)C3=C(C2)Nc2ccccc2NC3c2c(F)cccc2Cl)cc1` (centres unmarked) [compound 334], the IC50 [1, 5] was over 42.7 µM.
`Cc1ccc(C2C3=C(CC(c4cccc(Cl)c4)CC3=O)Nc3ccccc3N2C(=O)C(F)(F)F)cc1` (centres unmarked) [compound 225] gave an IC50 [1, 7] of over 42.7 µM.
With `CC1(C)CC(=O)C2=C(C1)Nc1ccccc1N(C(=O)c1ccccc1)C2c1ccc(-c2cccc([N+](=O)[O-])c2)o1` (centres unmarked) [compound 272] the IC50 [1, 3] was over 42.7 µM.
Work on `O=C1C[C@@H](c2ccc(Cl)cc2)CC2=C1[C@H](c1cc3c(cc1[N+](=O)[O-])OCO3)Nc1ccccc1N2` [compound 475] yielded an IC50 [1, 5] of over 42.7 µM.
With `COc1ccc(C2C3=C(CC(C)(C)CC3=O)Nc3ccccc3N2C(=O)c2ccccc2)cc1OCc1ccccc1` (centres unmarked) [compound 51] the EC50 [2, 8] was 7.66 µM.
With `CC1(C)CC(=O)C2=C(C1)Nc1ccccc1N(C(=O)C(F)(F)F)C2/C(Br)=C/c1ccccc1` (centres unmarked) [compound 256] the EC50 [2, 4] was 3.98 µM.
